Source: ChEMBL document CHEMBL2021760, “4-(1-Phenyl-1H-pyrazol-4-yl)quinolines as novel, selective and brain penetrant metabotropic glutamate receptor 4 positive allosteric modulators” (Bioorg Med Chem Lett, 2012)
Converted amounts (≈) assume the structure as drawn.

Columns and labels:
[1] = biological target: T1, Metabotropic glutamate receptor 4 (Homo sapiens, UniProt Q14833); assay: Positive allosteric modulation of human mGlu4 receptor expressed in BHK cells assessed as potentiation of glutamate-induced calcium mobilization by FLIPR analysis relative to PHCCC; format: functional, cell-based
[2] = biological target: T1, Metabotropic glutamate receptor 4; assay: Positive allosteric modulation of human mGlu4 receptor expressed in BHK cells assessed as potentiation of glutamate-induced calcium mobilization by FLIPR analysis; format: functional, cell-based
[3] = Kinetic solubility of the compound at pH 4.0; format: physicochemical; details: buffer, read-out: Kinetic_solubility
CYP2C19 = CYP2C19 (Homo sapiens, UniProt P33261); assay: Inhibition of CYP2C19 at 5 uM; format: ADME
CYP3A4 = CYP3A4 (Homo sapiens, UniProt P08684); assay: Inhibition of CYP3A4 at 5 uM; format: ADME
Brain [4] = assay: Fraction unbound in rat brain; format: ADME, tissue-based
Cerebrospinal fluid = assay: Drug uptake in rat CSF at 10 mg/kg, po; format: ADME, organism-based; parameters: dose 10 mg/kg, route oral; details: in vivo
Brain [5] = assay: Drug uptake in rat brain at 10 mg/kg, po; format: ADME, organism-based; parameters: dose 10 mg/kg, route oral; details: in vivo
CYP2C9 = CYP2C9 (Homo sapiens, UniProt P11712); assay: Inhibition of CYP2C9 at 5 uM; format: ADME
[6] = Kinetic solubility of the compound at pH 7.4; format: physicochemical; details: buffer, read-out: Kinetic_solubility
[7] = biological target: T1, Metabotropic glutamate receptor 4; assay: Positive allosteric modulation of human mGlu4 receptor expressed in BHK cells assessed as fold shift in calcium mobilization by FLIPR analysis relative to glutamate; format: functional, cell-based
CYP2B6 = biological target: T2, CYP2B6 (Homo sapiens, UniProt P20813); assay: Inhibition of CYP2B6 at 5 uM; format: ADME
T2 sequence (P20813 whole entry): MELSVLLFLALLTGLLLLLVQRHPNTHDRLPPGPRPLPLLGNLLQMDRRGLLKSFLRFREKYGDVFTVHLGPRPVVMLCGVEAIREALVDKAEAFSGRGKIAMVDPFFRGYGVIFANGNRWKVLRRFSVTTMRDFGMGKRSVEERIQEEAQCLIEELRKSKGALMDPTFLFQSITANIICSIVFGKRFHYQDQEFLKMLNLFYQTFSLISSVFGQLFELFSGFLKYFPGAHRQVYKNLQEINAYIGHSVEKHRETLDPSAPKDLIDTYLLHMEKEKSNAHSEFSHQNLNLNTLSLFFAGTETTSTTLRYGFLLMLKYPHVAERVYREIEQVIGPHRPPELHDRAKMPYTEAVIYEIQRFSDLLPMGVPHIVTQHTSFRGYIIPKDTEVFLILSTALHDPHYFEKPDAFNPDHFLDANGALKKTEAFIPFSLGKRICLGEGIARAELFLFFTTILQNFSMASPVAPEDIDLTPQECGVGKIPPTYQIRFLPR

[8] = Plasma protein binding in rat; format: ADME, cell-free; details: read-out: PPB (converted)
[9] = Ratio of drug level in brain to plasma in rat at 10 mg/kg, po; format: ADME, organism-based; parameters: dose 10 mg/kg, route oral; details: read-out: BPR
Plasma = assay: Plasma concentration in rat at 10 mg/kg, po; format: ADME, organism-based; parameters: dose 10 mg/kg, route oral; details: in vivo
Rattus norvegicus = species: Rattus norvegicus; assay: Intrinsic clearance in rat; format: ADME, organism-based; details: in vivo
[10] = Lipophilicity, log D of compound at pH 7.4; format: physicochemical; details: buffer

T1 sequence (Q14833 whole entry): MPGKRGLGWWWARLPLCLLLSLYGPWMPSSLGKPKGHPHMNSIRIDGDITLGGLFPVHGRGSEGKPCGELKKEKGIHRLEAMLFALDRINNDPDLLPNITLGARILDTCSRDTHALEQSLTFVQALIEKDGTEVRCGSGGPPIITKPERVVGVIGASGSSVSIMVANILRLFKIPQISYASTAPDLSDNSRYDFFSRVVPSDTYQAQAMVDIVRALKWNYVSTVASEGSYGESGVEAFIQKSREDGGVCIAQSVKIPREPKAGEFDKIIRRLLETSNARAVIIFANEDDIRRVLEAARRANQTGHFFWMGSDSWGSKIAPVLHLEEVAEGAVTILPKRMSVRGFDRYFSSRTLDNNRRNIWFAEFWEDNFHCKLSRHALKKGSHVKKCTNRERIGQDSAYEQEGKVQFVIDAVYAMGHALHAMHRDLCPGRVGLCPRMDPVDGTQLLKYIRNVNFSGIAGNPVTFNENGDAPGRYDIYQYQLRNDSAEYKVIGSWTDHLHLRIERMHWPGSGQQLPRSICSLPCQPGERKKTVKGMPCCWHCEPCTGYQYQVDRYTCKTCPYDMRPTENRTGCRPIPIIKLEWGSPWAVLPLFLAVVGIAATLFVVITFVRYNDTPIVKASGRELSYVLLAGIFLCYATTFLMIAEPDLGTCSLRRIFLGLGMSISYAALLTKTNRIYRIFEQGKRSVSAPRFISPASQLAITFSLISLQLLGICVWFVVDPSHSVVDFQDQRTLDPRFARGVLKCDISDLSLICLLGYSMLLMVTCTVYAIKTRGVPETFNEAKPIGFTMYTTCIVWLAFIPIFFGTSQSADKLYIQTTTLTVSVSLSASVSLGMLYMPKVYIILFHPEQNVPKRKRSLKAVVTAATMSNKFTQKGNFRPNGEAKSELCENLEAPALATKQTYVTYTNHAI
Sequence of CYP3A4 (P08684 whole entry): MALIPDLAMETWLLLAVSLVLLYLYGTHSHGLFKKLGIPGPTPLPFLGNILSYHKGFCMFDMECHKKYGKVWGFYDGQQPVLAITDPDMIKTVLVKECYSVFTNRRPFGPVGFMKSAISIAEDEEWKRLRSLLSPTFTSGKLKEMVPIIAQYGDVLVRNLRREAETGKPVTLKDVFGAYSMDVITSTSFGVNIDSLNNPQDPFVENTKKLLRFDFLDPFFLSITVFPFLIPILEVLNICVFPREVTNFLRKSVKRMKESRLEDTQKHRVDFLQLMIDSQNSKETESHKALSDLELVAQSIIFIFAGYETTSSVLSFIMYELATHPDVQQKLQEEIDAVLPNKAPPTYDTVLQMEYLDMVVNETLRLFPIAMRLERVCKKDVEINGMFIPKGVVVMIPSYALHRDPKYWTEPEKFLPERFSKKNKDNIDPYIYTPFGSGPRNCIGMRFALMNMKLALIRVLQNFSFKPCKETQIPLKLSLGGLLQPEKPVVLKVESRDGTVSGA
Sequence of CYP2C9 (P11712 whole entry): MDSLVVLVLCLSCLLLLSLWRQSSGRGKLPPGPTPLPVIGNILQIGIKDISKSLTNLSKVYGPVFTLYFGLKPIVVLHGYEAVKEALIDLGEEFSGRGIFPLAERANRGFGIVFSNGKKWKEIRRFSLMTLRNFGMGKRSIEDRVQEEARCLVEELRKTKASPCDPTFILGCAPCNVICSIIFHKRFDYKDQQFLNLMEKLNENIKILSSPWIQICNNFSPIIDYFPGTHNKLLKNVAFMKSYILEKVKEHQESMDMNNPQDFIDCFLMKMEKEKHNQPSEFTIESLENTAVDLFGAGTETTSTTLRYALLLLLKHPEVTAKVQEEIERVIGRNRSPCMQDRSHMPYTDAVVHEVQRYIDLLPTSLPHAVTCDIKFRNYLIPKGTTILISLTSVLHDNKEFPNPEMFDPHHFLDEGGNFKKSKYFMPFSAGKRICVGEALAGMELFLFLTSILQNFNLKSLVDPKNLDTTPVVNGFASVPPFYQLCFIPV
Sequence of CYP2C19 (P33261 whole entry): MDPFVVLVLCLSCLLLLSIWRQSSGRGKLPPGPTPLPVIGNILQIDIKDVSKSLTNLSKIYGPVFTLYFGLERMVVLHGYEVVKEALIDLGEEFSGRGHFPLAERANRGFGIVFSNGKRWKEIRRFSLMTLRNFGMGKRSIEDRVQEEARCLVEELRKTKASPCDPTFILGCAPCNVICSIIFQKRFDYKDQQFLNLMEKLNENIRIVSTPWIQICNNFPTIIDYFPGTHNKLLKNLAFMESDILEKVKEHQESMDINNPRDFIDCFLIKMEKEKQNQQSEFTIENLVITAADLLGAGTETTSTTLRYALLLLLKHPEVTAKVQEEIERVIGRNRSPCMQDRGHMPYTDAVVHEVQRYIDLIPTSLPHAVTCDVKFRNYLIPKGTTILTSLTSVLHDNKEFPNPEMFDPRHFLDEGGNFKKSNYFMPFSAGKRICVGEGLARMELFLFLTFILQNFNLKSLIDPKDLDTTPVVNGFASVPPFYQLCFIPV

Structure (SMILES)	Emax [1] [%]	EC50 [2] [µM]	further results
c1ccc(-n2cc(-c3ccncc3)cn2)cc1	39	> 10	–
c1ccc(-n2cc(-c3ccnc4cc(OCCCN5CCCCC5)ccc34)cn2)cc1	23	> 10	–
CN(C)CCOc1ccc2c(-c3cnn(-c4ccccc4)c3)ccnc2c1	23	> 10	–
CN(C)C(=O)Oc1ccc2c(-c3cnn(-c4ccccc4)c3)ccnc2c1	82	0.95	–
Fc1cccc(-n2cc(-c3ccnc4ccccc34)cn2)c1	92	3.1	–
c1ccc2c(-c3cn[nH]c3)ccnc2c1	6	> 10	–
Cc1c(-c2ccnc3ccccc23)cnn1-c1ccccc1	130	0.67	–
c1ccc(-n2cc(-c3ccnc4cc(OCCN5CCCC5)ccc34)cn2)cc1	9	> 10	–
CCN(CC)C(=O)Oc1ccc2c(-c3cnn(-c4ccccc4)c3)ccnc2c1	120	0.39	solubility kinetic [3]: 190 µM (≈ 73.4 µg/mL); inhibition at 5 µM (CYP2C19): 83%; inhibition at 5 µM (CYP3A4): 35%; Fu (Brain [4]): 0.4%; Drug uptake (Cerebrospinal fluid): < 1 ng/mL; Drug uptake (Brain [5]): 35 ng/g; inhibition at 5 µM (CYP2C9): 88%; solubility kinetic [6]: 1.4 µM (≈ 0.541 µg/mL); Ratio [7]: 11.2; inhibition at 5 µM (CYP2B6): 61%; fraction unbound [8]: 0.012; Kp [9]: 1.5; Cp (Plasma): 23 ng/mL; CL (Rattus norvegicus): 46 mL/min
c1ccc(-n2cc(-c3ccnc4cc(OCCCN5CCCC5)ccc34)cn2)cc1	7	> 10	–
CN(C)C(=O)COc1ccc2c(-c3cnn(-c4ccccc4)c3)ccnc2c1	11	> 10	–
c1ccc(-n2cc(-c3ccnc4cc(OCCN5CCCCC5)ccc34)cn2)cc1	71	6	–
COc1ccc2c(-c3cnn(-c4ccccc4)c3)ccnc2c1	79	0.22	solubility kinetic [3]: 120 µM (≈ 36.2 µg/mL); inhibition at 5 µM (CYP3A4): 35%; Fu (Brain [4]): 0.1%; Drug uptake (Cerebrospinal fluid): < 1 ng/mL; Drug uptake (Brain [5]): 180 ng/g; solubility kinetic [6]: 4.6 µM (≈ 1.39 µg/mL); logD [10]: 5; inhibition at 5 µM (CYP2B6): 35%; fraction unbound [8]: 0.002; Kp [9]: 0.8; Cp (Plasma): 220 ng/mL; CL (Rattus norvegicus): 68 mL/min
O=C(Oc1ccc2c(-c3cnn(-c4ccccc4)c3)ccnc2c1)N1CCCC1	120	0.5	–
Cc1nccc(-c2cnn(-c3ccccc3)c2)c1C	40	1.2	–
Clc1ccc2c(-c3cnn(-c4ccccc4)c3)ccnc2c1	100	0.59	–
c1ccc(-n2cc(-c3ccnc4ccccc34)cn2)nc1	92	2.1	–
c1ccc(COc2ccc3c(-c4cnn(-c5ccccc5)c4)ccnc3c2)cc1	110	0.64	–
O=C(COc1ccc2c(-c3cnn(-c4ccccc4)c3)ccnc2c1)N1CCOCC1	17	> 10	–
c1ccc(-n2cc(-c3ccnc4cc(OCCCN5CCOCC5)ccc34)cn2)cc1	64	2.8	–
Cc1cnccc1-c1cnn(-c2ccccc2)c1	90	5.1	–
OCCCOc1ccc2c(-c3cnn(-c4ccccc4)c3)ccnc2c1	23	> 10	–
